Key:
VP16CfEcR [1] = experiment: Transactivation of reporter gene through switch 1.7 in 3T3 cells; type: cell-based, Choristoneura fumiferana; conditions: switch 1.7, pEcRELuc
Protocol: (§1) Six ecdysone response elements (“EcRE”; SEQ ID NO: 55) from the hsp27 gene were placed upstream of the promoter and a luciferase gene (SEQ ID NO: 66). This switch most probably uses endogenous RXR.
(§2) The cells were harvested and reporter activity was assayed.
(§3) The cells were plated when they reached 50% confluency.
(§4) Cells were harvested 24–48 hr after adding ligands. […] Twenty μl of lysate was assayed.

CfVgRXR + MmRXR [2] = experiment: Transactivation of reporter gene through switch 1.9 in CV1 cells; type: cell-based, Choristoneura fumiferana; Mus musculus; conditions: switch 1.9, pIND(SP1)LacZ
Protocol: (§5) This example was prepared in the same way as switch 1.8 except DmEcR was replaced with a truncated CfEcR comprising a partial A/B domain and the complete CDEF domains [SEQ ID NO: 70 (polynucleotide) and SEQ ID NO: 71 (polypeptide)].
as §2, §3
(§6) The same procedures described for NIH3T3 cells were followed for CV1 cells
as §4

GAL4EcR + VP16USP [3] = experiment: Transactivation of reporter gene through switch 1.2 in 293 cells; type: cell-based, Choristoneura fumiferana; conditions: switch 1.2, pGAL4RELuc
Protocol: (§7) This construct was prepared in the same way as in switch 1.1 above except MmRXRDEF was replaced with the D, E and F domains from spruce budworm USP (“CfUSPDEF”; SEQ ID NO: 67). The constructs used in this example are similar to those disclosed in U.S. Pat. No. 5,880,333 except that Choristoneura fumiferana USP rather than Drosophila melanogaster USP was utilized.
as §2
(§8) The same procedures described for CHO were followed for 293 cells except that the cells were plated in biocoated plates to avoid clumping.
as §4

GAL4EcR + VP16USP [4] = experiment: Transactivation of reporter gene through switch 1.2 in CV1 cells; type: cell-based, Choristoneura fumiferana; conditions: switch 1.2, pGAL4RELuc
Protocol: as §7, §2, §3, §6, §4

CfVgRXR [5] = experiment: Transactivation of reporter gene through switch 1.10 in 293 cells; type: cell-based, Choristoneura fumiferana; conditions: switch 1.10, pIND(SP1)LacZ
Protocol: (§9) This example was prepared in the same way as switch 1.9 except MmRXR (SEQ ID NO: 62) was deleted.
as §2, §8, §4

VP16CfEcR [6] = experiment: Transactivation of reporter gene through switch 1.7 in CHO cells; type: cell-based, Choristoneura fumiferana; conditions: switch 1.7, pEcRELuc
Protocol: as §1, §2, §4

GAL4RXR + VP16CfEcR = experiment: Transactivation of reporter gene through switch 1.3 in 293 cells; type: cell-based, Mus musculus; Choristoneura fumiferana; conditions: switch 1.3, pGAL4RELuc
Protocol: as §2, §8, §4

GAL4RXR + VP16DmEcR [7] = biological target: T1, GAL4RXR + VP16DmEcR (Drosophila melanogaster, UniProt P34021); experiment: Transactivation of reporter gene through switch 1.4 in 293 cells; type: cell-based, Mus musculus; Drosophila melanogaster; conditions: switch 1.4, pGAL4RELuc
T1 sequence (P34021 254-878): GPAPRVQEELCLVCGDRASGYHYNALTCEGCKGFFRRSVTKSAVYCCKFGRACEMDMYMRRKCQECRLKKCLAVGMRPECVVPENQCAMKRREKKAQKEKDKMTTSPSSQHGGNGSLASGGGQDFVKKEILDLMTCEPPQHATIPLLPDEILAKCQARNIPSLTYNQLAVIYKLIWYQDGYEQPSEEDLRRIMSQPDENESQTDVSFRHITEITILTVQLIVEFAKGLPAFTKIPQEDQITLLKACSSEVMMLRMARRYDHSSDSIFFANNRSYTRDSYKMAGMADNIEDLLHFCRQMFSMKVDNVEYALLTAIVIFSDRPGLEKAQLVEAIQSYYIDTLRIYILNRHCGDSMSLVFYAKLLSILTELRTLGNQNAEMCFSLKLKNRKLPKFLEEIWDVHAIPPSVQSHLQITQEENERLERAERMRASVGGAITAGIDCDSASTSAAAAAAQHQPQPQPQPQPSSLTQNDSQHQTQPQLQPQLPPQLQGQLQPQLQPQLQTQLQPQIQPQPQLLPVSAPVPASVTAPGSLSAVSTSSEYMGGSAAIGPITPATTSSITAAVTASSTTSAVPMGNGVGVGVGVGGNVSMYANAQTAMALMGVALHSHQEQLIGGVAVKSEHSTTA
T1 sequence (P28700 206-467 partner limits assumed): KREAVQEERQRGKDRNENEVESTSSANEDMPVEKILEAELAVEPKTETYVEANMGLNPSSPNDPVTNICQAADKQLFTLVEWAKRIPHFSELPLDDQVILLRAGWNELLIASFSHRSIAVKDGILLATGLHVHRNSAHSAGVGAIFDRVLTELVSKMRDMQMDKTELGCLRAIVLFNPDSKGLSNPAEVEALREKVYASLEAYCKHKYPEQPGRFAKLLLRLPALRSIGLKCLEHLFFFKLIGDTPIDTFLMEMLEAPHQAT
Protocol: (§10) This construct was prepared in the same way as switch 1.3 except CfEcRCDEF was replaced with DmEcRCDEF (SEQ ID NO: 6).
as §2, §8, §4

GAL4USP + VP16CfEcR = experiment: Transactivation of reporter gene through switch 1.5 in 3T3 cells; type: cell-based, Choristoneura fumiferana; conditions: switch 1.5, pGAL4RELuc
Protocol: This construct was prepared in the same way as switch 1.3 except MmRXRDEF was replaced with CfUSPDEF (SEQ ID NO: 67).
as §2, §3, §4

VP16CfEcR [8] = experiment: Transactivation of reporter gene through switch 1.7 in 293 cells; type: cell-based, Choristoneura fumiferana; conditions: switch 1.7, pEcRELuc
Protocol: as §1, §2, §8, §4

GAL4RXR + VP16DmEcR [9] = biological target: T1, GAL4RXR + VP16DmEcR; experiment: Transactivation of reporter gene through switch 1.4 in CV1 cells; type: cell-based, Mus musculus; Drosophila melanogaster; design: expressed in transfected cells; host or cells: CV1 cells; conditions: switch 1.4, pGAL4RELuc
Protocol: as §10, §2, §3, §6, §4

CfVgRXR + MmRXR [10] = experiment: Transactivation of reporter gene through switch 1.9 in CHO cells; type: cell-based, Choristoneura fumiferana; Mus musculus; conditions: switch 1.9, pIND(SP1)LacZ
Protocol: as §5, §2, §4

CfVgRXR [11] = experiment: Transactivation of reporter gene through switch 1.10 in CHO cells; type: cell-based, Choristoneura fumiferana; conditions: switch 1.10, pIND(SP1)LacZ
Protocol: as §9, §2, §4

DmVgRXR + MmRXR = DmVgRXR + MmRXR (Drosophila melanogaster, UniProt P34021, E282G/G283S/G286V); experiment: Transactivation of reporter gene through switch 1.8 in CV1 cells; type: cell-based, Drosophila melanogaster; Mus musculus; design: host or cells: CHO, NIH3T3, 293 or CV1 cells; conditions: switch 1.8, pIND(SP1)LacZ
Sequence of DmVgRXR + MmRXR (P28700 whole entry, the tested form may be a part): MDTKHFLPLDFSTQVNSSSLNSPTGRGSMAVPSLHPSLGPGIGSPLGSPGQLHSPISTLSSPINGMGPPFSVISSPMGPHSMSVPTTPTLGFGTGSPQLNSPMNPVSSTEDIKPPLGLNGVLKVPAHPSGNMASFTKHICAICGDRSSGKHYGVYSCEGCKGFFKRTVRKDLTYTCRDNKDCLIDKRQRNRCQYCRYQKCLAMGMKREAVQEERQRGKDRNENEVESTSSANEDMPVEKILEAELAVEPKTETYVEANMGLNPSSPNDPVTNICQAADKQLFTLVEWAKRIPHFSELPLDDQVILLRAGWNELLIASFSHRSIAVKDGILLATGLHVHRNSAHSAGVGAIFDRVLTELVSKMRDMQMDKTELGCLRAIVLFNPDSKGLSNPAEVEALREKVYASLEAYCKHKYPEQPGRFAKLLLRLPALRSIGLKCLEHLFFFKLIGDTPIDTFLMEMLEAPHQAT
Sequence of DmVgRXR + MmRXR (P34021 whole entry E282G/G283S/G286V, the tested form may be a part): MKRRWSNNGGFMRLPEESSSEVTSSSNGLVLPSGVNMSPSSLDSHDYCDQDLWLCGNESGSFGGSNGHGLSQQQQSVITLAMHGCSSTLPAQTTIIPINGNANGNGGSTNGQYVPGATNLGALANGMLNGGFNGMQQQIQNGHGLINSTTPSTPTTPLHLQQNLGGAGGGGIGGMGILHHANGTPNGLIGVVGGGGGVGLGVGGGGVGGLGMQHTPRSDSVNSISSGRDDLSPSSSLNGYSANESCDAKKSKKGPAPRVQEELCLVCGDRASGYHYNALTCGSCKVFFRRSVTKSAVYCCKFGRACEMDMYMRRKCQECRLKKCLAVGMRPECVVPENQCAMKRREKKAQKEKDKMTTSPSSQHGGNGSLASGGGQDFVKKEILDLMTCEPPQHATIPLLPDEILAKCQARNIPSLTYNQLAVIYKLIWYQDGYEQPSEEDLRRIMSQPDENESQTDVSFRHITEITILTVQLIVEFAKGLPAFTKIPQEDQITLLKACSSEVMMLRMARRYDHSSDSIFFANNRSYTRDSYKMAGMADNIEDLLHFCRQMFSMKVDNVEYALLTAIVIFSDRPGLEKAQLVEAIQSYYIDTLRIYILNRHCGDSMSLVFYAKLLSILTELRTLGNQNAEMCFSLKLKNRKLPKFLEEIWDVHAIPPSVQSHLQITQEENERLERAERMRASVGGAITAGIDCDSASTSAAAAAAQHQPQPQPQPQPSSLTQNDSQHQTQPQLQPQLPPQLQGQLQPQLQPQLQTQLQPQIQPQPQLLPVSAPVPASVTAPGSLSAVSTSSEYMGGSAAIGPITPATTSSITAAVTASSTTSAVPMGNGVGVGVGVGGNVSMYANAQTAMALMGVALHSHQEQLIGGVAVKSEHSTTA
Excerpt: This system was purchased from Invitrogen Corp., Carlsbad, California. It comprises a Drosophila melanogaster EcR (“DmEcR”) with a modified DNABD fused to VP16AD and placed under the control of a CMV promoter (SEQ ID NO: 68). Full length MmRXR (SEQ ID NO: 62) was placed under the control of the RSV promoter (SEQ ID NO: 69). The reporter, pIND(SP1)LacZ, contains five copies of a modified ecdysone response element (“EcRE”, E/GRE), three copies of an SPI enhancer, and a minimal heat shock promoter, all of which were placed upstream to the LacZ reporter gene.
as §2, §3, §6, §4

## CCc1c(OC)cccc1C(=O)NN(C(=O)c1cc(C)cc(C)c1)C(C)(C)C [N-(2-ethyl-3-methoxybenzoyl)-N′-(3,5-dimethylbenzoyl)-N′-t-butylhydrazine]
VP16CfEcR [1]
  Mean Fold Activation Through N-(2-ethyl-3-methoxybenzoyl)-N′-(3,5-dimethylbenzoyl)-N′-t-butylhydrazine: 1 fold
CfVgRXR + MmRXR [2]
  Mean Fold Activation Through N-(2-ethyl-3-methoxybenzoyl)-N′-(3,5-dimethylbenzoyl)-N′-t-butylhydrazine: 7 fold
GAL4EcR + VP16USP [3]
  Mean Fold Activation Through N-(2-ethyl-3-methoxybenzoyl)-N′-(3,5-dimethylbenzoyl)-N′-t-butylhydrazine: 2 fold
GAL4EcR + VP16USP [4]
  Mean Fold Activation Through N-(2-ethyl-3-methoxybenzoyl)-N′-(3,5-dimethylbenzoyl)-N′-t-butylhydrazine: 2 fold
CfVgRXR [5]
  Mean Fold Activation Through N-(2-ethyl-3-methoxybenzoyl)-N′-(3,5-dimethylbenzoyl)-N′-t-butylhydrazine: 3 fold
VP16CfEcR [6]
  Mean Fold Activation with 50 μM N-(2-ethyl-3-methoxybenzoyl)-N′-(3,5-dimethylbenzoyl)-N′-t-butylhydrazine: 36 fold
GAL4RXR + VP16CfEcR
  Mean Fold Activation Through N-(2-ethyl-3-methoxybenzoyl)-N′-(3,5-dimethylbenzoyl)-N′-t-butylhydrazine: 17 fold
GAL4RXR + VP16DmEcR [7]
  Mean Fold Activation Through N-(2-ethyl-3-methoxybenzoyl)-N′-(3,5-dimethylbenzoyl)-N′-t-butylhydrazine: 3 fold
GAL4USP + VP16CfEcR
  Mean Fold Activation Through N-(2-ethyl-3-methoxybenzoyl)-N′-(3,5-dimethylbenzoyl)-N′-t-butylhydrazine: 3 fold
VP16CfEcR [8]
  Mean Fold Activation Through N-(2-ethyl-3-methoxybenzoyl)-N′-(3,5-dimethylbenzoyl)-N′-t-butylhydrazine: 2 fold
GAL4RXR + VP16DmEcR [9]
  Mean Fold Activation Through N-(2-ethyl-3-methoxybenzoyl)-N′-(3,5-dimethylbenzoyl)-N′-t-butylhydrazine: 80 fold
CfVgRXR + MmRXR [10]
  Mean Fold Activation with 50 μM N-(2-ethyl-3-methoxybenzoyl)-N′-(3,5-dimethylbenzoyl)-N′-t-butylhydrazine: 27 fold
CfVgRXR [11]
  Mean Fold Activation with 50 μM N-(2-ethyl-3-methoxybenzoyl)-N′-(3,5-dimethylbenzoyl)-N′-t-butylhydrazine: 29 fold
DmVgRXR + MmRXR
  Mean Fold Activation Through N-(2-ethyl-3-methoxybenzoyl)-N′-(3,5-dimethylbenzoyl)-N′-t-butylhydrazine: 12 fold

Reference: patent US7091038B2, “Ecdysone receptor-based inducible gene expression system” (RheoGene, Inc., priority 2000, dated 2006)
